Laboratory results published in PubChem BioAssay AID1745844 (Carcinogenic Potency Database (CPDB), 2022).

Test system: rodent lifetime carcinogenesis bioassay, tumor incidence TD50
Test: carcinogenic potency in animals, long-term in vivo studies, CPDB compilation (AID 1745844)
Settings: mouse, strain B6C3F1, males, inhaled

Compound `C=CC=C` has a TD50 (site: all sites, lesion: malignant lymphoma, mixed type + malignant lymphoma, lymphocytic type + malignant lymphoma, dosed 26 weeks, study length 104 weeks) of 31.3 mg/kg/day, a TD50 (site: all sites, lesion: malignant lymphoma, mixed type + malignant lymphoma, lymphocytic type + malignant lymphoma, dosed 40 weeks, study length 104 weeks) of 108 mg/kg/day and a TD50 (site: all sites, lesion: malignant lymphoma, mixed type + malignant lymphoma, lymphocytic type + malignant lymphoma, dosed 52 weeks, study length 104 weeks) of 46.4 mg/kg/day. The TD50 (site: all sites, lesion: malignant lymphoma, mixed type + malignant lymphoma, dosed 13 weeks, study length 104 weeks) was 78.1 mg/kg/day, the TD50 (site: all sites, lesion: malignant lymphoma, mixed type + malignant lymphoma, dosed 26 weeks, study length 104 weeks) was 111 mg/kg/day and the TD50 (site: all sites, lesion: malignant lymphoma, mixed type + malignant lymphoma, dosed 40 weeks, study length 104 weeks) was 487 mg/kg/day. The TD50 (site: all sites, lesion: malignant lymphoma, mixed type + malignant lymphoma, dosed 52 weeks, study length 104 weeks) was 76.2 mg/kg/day, the TD50 (site: any site (literature study), lesion: several types, types named in the paper, dosed 13 weeks, study length 104 weeks) was 6.92 mg/kg/day and the TD50 (site: any site (literature study), lesion: several types, types named in the paper, dosed 26 weeks, study length 104 weeks) was 12.5 mg/kg/day. For the same compound, the TD50 (site: any site (literature study), lesion: several types, types named in the paper, dosed 40 weeks, study length 104 weeks) was 10.8 mg/kg/day, the TD50 (site: any site (literature study), lesion: several types, types named in the paper, dosed 52 weeks, study length 104 weeks) was 5.84 mg/kg/day and the TD50 (site: any site (literature study), lesion: several types, types named in the paper, dosed 60 weeks, study length 60 weeks) was 28.8 mg/kg/day. It also gave a TD50 (site: any site (literature study), lesion: several types, types named in the paper, dosed 82 weeks, study length 104 weeks) of 10.5 mg/kg/day, a TD50 (site: brain, lesion: olfactory lobe, glioma malignant, dosed 13 weeks, study length 104 weeks) of 230 mg/kg/day and a TD50 (site: brain, lesion: olfactory lobe, glioma malignant, dosed 26 weeks, study length 104 weeks) of 403 mg/kg/day. It also gave a TD50 (site: brain, lesion: olfactory lobe, neuroblastoma malignant, dosed 13 weeks, study length 104 weeks) of 394 mg/kg/day, a TD50 (site: forestomach, lesion: papilloma, NOS + squamous-cell carcinoma + squamous-cell papilloma, dosed 60 weeks, study length 60 weeks) of 120 mg/kg/day and a TD50 (site: forestomach, lesion: papilloma, NOS + squamous-cell papilloma, dosed 60 weeks, study length 60 weeks) of 140 mg/kg/day. The TD50 (site: forestomach, lesion: squamous-cell carcinoma + squamous-cell papilloma, dosed 13 weeks, study length 104 weeks) was 44.8 mg/kg/day, the TD50 (site: forestomach, lesion: squamous-cell carcinoma + squamous-cell papilloma, dosed 26 weeks, study length 104 weeks) was 91.4 mg/kg/day and the TD50 (site: forestomach, lesion: squamous-cell carcinoma + squamous-cell papilloma, dosed 40 weeks, study length 104 weeks) was 171 mg/kg/day. The TD50 (site: forestomach, lesion: squamous-cell carcinoma + squamous-cell papilloma, dosed 52 weeks, study length 104 weeks) was 42.8 mg/kg/day, the TD50 (site: forestomach, lesion: squamous-cell carcinoma + squamous-cell papilloma, dosed 60 weeks, study length 60 weeks) was 557 mg/kg/day and the TD50 (site: forestomach, lesion: squamous-cell carcinoma + squamous-cell papilloma, dosed 82 weeks, study length 104 weeks) was 197 mg/kg/day. The TD50 (site: forestomach, lesion: squamous-cell carcinoma, dosed 13 weeks, study length 104 weeks) was 43.4 mg/kg/day, the TD50 (site: forestomach, lesion: squamous-cell carcinoma, dosed 26 weeks, study length 104 weeks) was 136 mg/kg/day and the TD50 (site: forestomach, lesion: squamous-cell carcinoma, dosed 52 weeks, study length 104 weeks) was 154 mg/kg/day. For the same compound, the TD50 (site: forestomach, lesion: squamous-cell papilloma, dosed 13 weeks, study length 104 weeks) was 117 mg/kg/day, the TD50 (site: forestomach, lesion: squamous-cell papilloma, dosed 26 weeks, study length 104 weeks) was 284 mg/kg/day and the TD50 (site: forestomach, lesion: squamous-cell papilloma, dosed 40 weeks, study length 104 weeks) was 171 mg/kg/day. It also gave a TD50 (site: forestomach, lesion: squamous-cell papilloma, dosed 52 weeks, study length 104 weeks) of 77.7 mg/kg/day, a TD50 (site: forestomach, lesion: squamous-cell papilloma, dosed 82 weeks, study length 104 weeks) of 230 mg/kg/day and a TD50 (site: heart + peritoneal cavity, lesion: hemangiosarcoma, dosed 60 weeks, study length 60 weeks) of 96.7 mg/kg/day. The TD50 (site: heart, lesion: hemangiosarcoma, dosed 13 weeks, study length 104 weeks) was 32.6 mg/kg/day, the TD50 (site: heart, lesion: hemangiosarcoma, dosed 26 weeks, study length 104 weeks) was 18.5 mg/kg/day and the TD50 (site: heart, lesion: hemangiosarcoma, dosed 40 weeks, study length 104 weeks) was 21.9 mg/kg/day. For the same compound, the TD50 (site: heart, lesion: hemangiosarcoma, dosed 52 weeks, study length 104 weeks) was 13.9 mg/kg/day, the TD50 (site: heart, lesion: hemangiosarcoma, dosed 60 weeks, study length 60 weeks) was 96.7 mg/kg/day and the TD50 (site: heart, lesion: hemangiosarcoma, dosed 82 weeks, study length 104 weeks) was 64.8 mg/kg/day. The TD50 (site: jejunum, lesion: carcinoma, dosed 82 weeks, study length 104 weeks) was 310 mg/kg/day, the TD50 (site: kidney, lesion: adenoma + tubule adenoma, dosed 52 weeks, study length 104 weeks) was 190 mg/kg/day and the TD50 (site: kidney, lesion: tubule adenoma, dosed 13 weeks, study length 104 weeks) was 201 mg/kg/day. The TD50 (site: kidney, lesion: tubule adenoma, dosed 26 weeks, study length 104 weeks) was 961 mg/kg/day, the TD50 (site: kidney, lesion: tubule adenoma, dosed 40 weeks, study length 104 weeks) was 161 mg/kg/day and the TD50 (site: kidney, lesion: tubule adenoma, dosed 82 weeks, study length 104 weeks) was 268 mg/kg/day. The TD50 (site: liver, lesion: hepatoblastoma + hepatocellular carcinoma, dosed 13 weeks, study length 104 weeks) was 23.4 mg/kg/day, the TD50 (site: liver, lesion: hepatoblastoma + hepatocellular carcinoma, dosed 26 weeks, study length 104 weeks) was 60 mg/kg/day and the TD50 (site: liver, lesion: hepatoblastoma + hepatocellular carcinoma, dosed 52 weeks, study length 104 weeks) was 41.4 mg/kg/day. It also gave a TD50 (site: liver, lesion: hepatocellular adenoma + hepatoblastoma + hepatocellular carcinoma, dosed 13 weeks, study length 104 weeks) of 15.1 mg/kg/day, a TD50 (site: liver, lesion: hepatocellular adenoma + hepatoblastoma + hepatocellular carcinoma, dosed 26 weeks, study length 104 weeks) of 23.8 mg/kg/day and a TD50 (site: liver, lesion: hepatocellular adenoma + hepatoblastoma + hepatocellular carcinoma, dosed 52 weeks, study length 104 weeks) of 13.8 mg/kg/day. For the same compound, the TD50 (site: liver, lesion: hepatocellular adenoma + hepatocellular carcinoma + neoplastic nodule, dosed 13 weeks, study length 104 weeks) was 15.1 mg/kg/day, the TD50 (site: liver, lesion: hepatocellular adenoma + hepatocellular carcinoma + neoplastic nodule, dosed 26 weeks, study length 104 weeks) was 23.8 mg/kg/day and the TD50 (site: liver, lesion: hepatocellular adenoma + hepatocellular carcinoma + neoplastic nodule, dosed 40 weeks, study length 104 weeks) was 16.8 mg/kg/day. It also gave a TD50 (site: liver, lesion: hepatocellular adenoma + hepatocellular carcinoma + neoplastic nodule, dosed 52 weeks, study length 104 weeks) of 14.6 mg/kg/day.
